The record followed here is patent US9708628B2, “Cationic lipid having improved intracellular kinetics” (NOF CORPORATION, priority 2011, dated 2017).

In series [1] the test system is HT1080 cells. As to the kind of experiment: Evaluation of endosome amount (Lysotracker Green). The format is cell-based. Particulars: 6 hr after transfection. Here is the method:
MENDs having a composition of B-2-4 (Example 4):DOPE:Chol=3:3:4, B-2 (Example 1):SOPE:Chol=5:3:2 were prepared by the method described in [Experimental Example 1] (2). For the preparation, PEG2000-DMG was used as PEG lipid, and MEND solutions corresponding to 0.55 mM of the lipid concentration were prepared.
HT1080 cells were plated on a glass bottom dish at 5×10^4 cells/2 mL/dish 24 hr before. MEND was diluted with DMEM (FBS 10%+) to achieve pDNA 1.6 μg/2 mL and transfected into the cells. The cells without transfection of MEND were used as a control. After 5.5 hr, Lysotracker Green (Life technologies) was added at 2 μL/dish and Hoechst 33342 (Dojindo) was further added at 2 μL/dish 30 min later. 6 hr after the transfection, the cells were washed twice with heparin (20 units/mL, 2 mL), Krebs buffer (1 mL) was added, and the cells were observed by a confocal laser scan microscope.
Endosome/lysosome and nucleus were shown in pseudo colors of green and blue, respectively. The relative endosome amount was calculated according to the following formula.

Series [2] is described as follows: Electron microscope observation by staining method. The class given is physicochemical. Particulars: phosphotungstic acid staining. Here is the method: MENDs of B-2 (Example 1) and B-2-4 (Example 4) were prepared according to [Experimental Example 1] (1), (2) and [Experimental Example 15]. For the preparation, PEG2000-DMG was used as PEG lipid, and MEND solutions corresponding to 1.38 mM of the lipid concentration were prepared. A 50% sucrose solution (pH 5.3) (5 mL) was added to a centrifugation tube, on which a 10% sucrose solution (pH 5.3) (5 mL) was layered, and a MEND solution (1.5 mL) was further overlaid to form an discontinuous density gradient. Purification was performed by ultracentrifugation (110000 g, 2 h, 25° C.) (Optima™ L-90K Ultracentrifuge, Sw41Ti, BECKMAN). The interface (4 ml) of sucrose density 10% and 50% was recovered, and sucrose was removed by ultrafiltration (1000 g, 3 min, 25° C.) to give a sample solution. A 2-fold diluted sample solution was adsorbed to a 400 mesh carbon film TEM grid, which was absorbed by a filter paper. A 2% phosphotungstic acid solution (pH 7.0) was added and the mixture was stood for 10 seconds. For observation, a transmission electron microscope (JEM-1200EX, JEOL Ltd.) was used. Accelerating voltage was set to 80 kV, and images were taken by a CCD camera (VELETA, JEOL Ltd.).

The subject of series [3] is HT1080 cells. The experiment in a line: Intracellular uptake pathway: influence of sucrose, amiloride, filipin on gene expression activity. The format is cell-based. As to conditions: 0.3M sucrose, 1.5 mM amiloride. Here is the method:
Using compositions of B-2-4 (Example 4):DOPE:Chol=3:3:4, B-2 (Example 1):SOPE:Chol=5:3:2 as lipid, MENDs were prepared according to [Experimental Example 1] (1), (2). For the preparation, PEG2000-DMG was used as PEG lipid, and MEND solutions corresponding to 0.55 mM of the lipid concentration were prepared.
HT1080 cells were plated on a 24-well plate at 4×10^4 cells/500 μL/well 24 hr before. The medium was changed to DMEM (FBS+) containing filipin at a final concentration of […] 30 min before transfection. The medium was changed to DMEM (FBS+) containing a final concentration of 0.3M sucrose, and 1.5 mM amiloride 15 min before transfection. For transfection, various MENDs were added to the well at 0.8 μg/500 μL/well based on the pDNA amount. Thereafter, the gene expression activity was evaluated by the method described in [Experimental Example 4] (2).

Series [4] can be described thus: Particle size and surface potential of siRNA MENDs prepared by t-BuOH injecting method. The format is physicochemical. Particulars: siRNA MEND, cationic lipid/cholesterol=70/30, DMG-PEG2000 3%. Here is the method: A lipid solution in t-BuOH with a composition of cationic lipid/cholesterol=70/30, DMG-PEG2000 3% and a total lipid amount of 3000 nmol/400 μL (7.5 mM) was prepared in a 1.7 mL tube. In a separate 1.7 mL tube, an siRNA solution was prepared by mixing an siRNA aqueous solution containing siRNA (160 μg) and 20 mM malate buffer (pH 4.00, 30 mM NaCl) to total 50 μL. With vigorous stirring of the lipid solution, the siRNA solution was gradually added dropwise, and the mixed solution was taken in a 1 mL syringe. Then, 20 mM malate buffer (pH 4.00, 30 mM NaCl, 2 mL) was added into a 5 mL tube, and the mixed solution was gradually injected with vigorous stirring. Thereafter, the mixture was further diluted with PBS (7 mL) and centrifuged at 1000 g, 30° C. for 10 min in Amicon Ultra-15-100K to a volume of less than 1.5 mL. PBS (15 mL) was added, and the solution was centrifuged again to about 500-1000 μL. Finally, the MEND solution was adjusted by diluting with PBS to the object lipid concentration.
The particle size and surface potential of various MENDs were measured according to the method described in [Experimental Example 2] and the results are shown in Table 6.

For a further series, the system named is TNF-α. The experiment in a line: Cytokine production by MEND administration, TNF-α (ELISA). The class given is in vivo, ICR mice. Particulars: pCpGfree-Luc(0), 40 μg DNA. Here is the method:
MENDs used in [Experimental Example 12] were each administered to 5-week-old male ICR mice from the tail vein in an amount corresponding to 40 μg DNA. 1, 3, 6, 24 hr later, the blood was collected from the heart, and TNF-α, IFN-γ, IL-12p70 were measured using Quantikine ELISA kit (R&D Systems).
A general note: ELISA stands for enzyme-linked immunosorbent assay.

The test system of a further series is liver. The experiment in a line: Time course of gene expression activity in the liver (IVIS imaging, total luminescence in abdomen). The format is in vivo, ICR mice. Particulars: for luminescence / gene expression time course: 40 μg DNA, tail vein. From the text: As a DNA to be mounted on MEND composed of B-2 in this case, […]-Luc(0) described in WO 2011/132713 was used as pDNA completely excluding CpG sequence known to induce immune response and, as a general pDNA having a CpG sequence, a plasmid DNA (pcDNA3.1-Luc(+); CpG sequence total 425) containing a CpG sequence in the back bone of the plasmid DNA and having a CpG sequence even between the initiation codon and the stop codon of the luciferase sequence (marker gene) was used. In gene transfer using cationic MEND and in vivo […]-Luc(0) alone was used. 6, 24, 72 hr later, luciferin (in vivo grade, Promega) corresponding to 3 mg was intraperitoneally administered to the mice, and imaging was performed using IVIS LuminaII (Caliper Life Sciences). As for MEND composed of B-2, imaging was performed about twice a week even after 72 hr. The total luminescence amount in the mouse abdomen was calculated as photon/sec from the obtained images, and used as an index of gene expression activity in the liver.

For `CC1=C(/C=C/C(C)=C/C=C/C(C)=C/C(=O)OCCCN(C)CCSSCCN(C)CCCOC(=O)/C=C(C)/C=C/C=C(C)/C=C/C2=C(C)CCCC2(C)C)C(C)(C)CCC1` [Example B-2-4], in the series on HT1080 cells [1], the relative endosome amount entry is “significant decrease in endosome than the untreated group and the B-2 treatment group”. Besides, the “structure of MEND by transmission electron microscope” value in series [2] was “structure coated with a monolayer lipid membrane”. Also, in the series on HT1080 cells [3], the “gene expression with sucrose, amiloride, filipin” value is recorded as “inhibited by amiloride”.

`Cc1c(C)c2c(c(C)c1OC(=O)CCC(=O)OCCCN(C)CCSSCCN(C)CCCOC(=O)CCC(=O)Oc1c(C)c(C)c3c(c1C)CCC(C)(CCCC(C)CCCC(C)CCCC(C)C)O3)CCC(C)(CCCC(C)CCCC(C)CCCC(C)C)O2` (stereo not drawn) [Example B-2-5]: in series [4], the PDI was found to be 0.076, the “size (nm)” value was found to be 110 nm and the “zeta (mV)” value was −9.5 mV.

Take `CCCCCCCCCCCCCC(=O)OCCCN(C)CCSSCCN(C)CCCOC(=O)CCCCCCCCCCCCC` [Example B-2]: in the series with TNF-α, the TNF-α blood concentration entry was “maintained the normal value at any time point”. In addition, the “structure of MEND by transmission electron microscope” value in series [2] is on record as “structure coated with a monolayer lipid membrane”. For the same compound, the “gene expression with sucrose, amiloride, filipin” value in the series with HT1080 cells [3] is “inhibited by sucrose and amiloride”. The “time at which luminescence completely disappeared” value in the series with liver (pCpGfree-Luc(0)) was 18 days. In addition, the “luminescence / gene expression time course” value with liver (pCpGfree-Luc(0)) is “luminescence amount increased from 6 hr to 24 hr later, after which the luminescence amount was retained for the subsequent one week”; with liver (pcDNA3.1-Luc(+)), “weak luminescence 6 hr later, after which the gene expression decreased”.
